Series [1] in a line: Solubility of test articles in the dosing vehicle (Example 3). As to conditions: at 10 mg/kg (2 mL/kg, NaCl 0.9%/DMSO 50/50).
In a further series the test system is monoarthritic rats. Briefly: Paw pressure test (vocalization threshold) in monoarthritic rats (intraarticular FCA). Format: in vivo, rat. As to conditions: for antihyperalgesic effect in model of monoarthritis (overall): i.p. 0.1, 1 and 10 mg/kg. As for the experimental part:
Experimentation was done blindly using the block method with randomization. Unilateral monoarthritits was induced by an intraarticular injection of FCA (0.05 ml) into the tibio tarsial cavity of the right hindpaw of the rat under volatile anaesthetic (5% isofluorane). Fourteen days later, drugs were intraperitoneally given as a single administration. Pain reaction thresholds (vocalization or struggle) were measured using the paw pressure test before induction of monoarthritis, just before drug injections and 15 min, 30 min, 45 min, 1 h, 1 h 30, 2 h and 3 h after drug injections. Pressure was gradually applied to the injected hindpaw of the rat (tibio tarsial articulation) and pain reaction thresholds were determined as the pressure (g) required to elicit struggle or vocalization.
Results were expressed as pressure (g) which induces pain reaction (mean+/−SEM). The cut-off value corresponds to the maximum pressure that the apparatus allows (750 g). Data were analyzed by a two-way analysis of variance (ANOVA) to compare time-course scores. These analyses were followed by a Tukey test when the F-value was significant. The significance level was p<0.05.

Series [2] deals with ipsilateral (inflamed) hindpaw of the FCA-rat model of inflammatory pain. Briefly: Paw Pressure Test, FCA-rat model of inflammatory pain (Example 1), ipsilateral hindpaw. In kind it is in vivo. As to conditions: single i.p. bolus doses ~7-70 mg/kg (estimated doses). On the procedure: Single bolus doses of PD-123,319 were administered by the i.p. route to rats with FCA-induced unilateral hindpaw inflammation, a rat model of inflammatory pain. Anti-hyperalgesic (pain-relieving) efficacy was assessed using the Paw Pressure Test, a test which involves the application of noxious pressure to the inflamed hindpaw.
Following i.pl. […] The ability of single bolus doses of PD-123,319 (˜7-70 mg/kg) or vehicle to alleviate mechanical hyperalgesia in the ipsilateral (inflamed) hindpaw was assessed using the Paw Pressure Test (PPT).

Series [3] relates to ipsilateral hindpaw volume of FCA-rats. Briefly: Paw volume measurement in FCA-rats (water displacement). In kind it is in vivo, rat. The conditions noted are these: 3 h post-dosing, single bolus doses tested. As for the experimental part: Paw volume was assessed using displacement of water by the hindpaw to indicate the paw volume. These measurements were undertaken for both the ipsilateral and contralateral hindpaws prior to and 5 days after i.pl. FCA administration and prior to and 3 h post-dosing.

Series [4] relates to ipsilateral (inflamed) hindpaw of FCA-rats. Briefly: Paw Pressure Test (PPT) in FCA-rats (Example 2), anti-hyperalgesia in ipsilateral hindpaw.
The test system of series [5] is contralateral (non-inflamed) hindpaw of FCA-rats. Briefly: Paw Pressure Test (PPT) in FCA-rats (Example 2), antinociception in contralateral hindpaw. The conditions noted are these: 0.5 mg/kg s.c.; did not reach statistical significance (p>0.05).
The next series concerns FCA-rats. Briefly: Behavioural observations in FCA-rats. Format: in vivo, rat. The conditions noted are these: single bolus: EMA500 1-100 mg/kg i.p., EMA600 1-30 mg/kg i.p., morphine 0.5 mg/kg. An excerpt:
The animals were monitored for visible and audible signs of distress throughout the testing period. The visible signs of distress included behavioural changes such as complete immobility, movement with abnormal gait, agitation, aggression, wet dog shakes, excessive grooming, restlessness with constant movement, repeated sudden movements or staring.

The values below come from US9227968B2, “Method of treatment or prophylaxis of inflammatory pain” (Novartis AG, priority 2006, dated 2016).

SMILES strings stand for the structures. “Also recorded” adds a separate entry of the source.

Consider `COc1ccc2c(c1OCc1ccccc1)CC(C(=O)O)N(C(=O)C(c1ccccc1)c1ccccc1)C2` (single isomer, unassigned; (+)) [EMA400, (+)-2-(Diphenylacetyl)-1,2,3,4 tetrahydro-6-methoxy-5-(phenylmethoxy)-3-isoquinoline carboxylic acid], for which the solubility issues entry in series [1] was “Solubility issues were observed”. The antihyperalgesic effect result is given as “+20%” in the series on monoarthritic rats (1 mg/kg i.p., 15 minutes after the injection); “+40%” with monoarthritic rats (10 mg/kg i.p., 15 minutes after the injection); “significant antihyperalgesic effect” with monoarthritic rats (10 mg/kg i.p., 30 minutes after the injection). For the same compound, the “antihyperalgesic effect in model of monoarthritis (overall)” value in the series with monoarthritic rats was “induce antihyperalgesic effects”.

Take `COc1ccc(Cn2cnc3c2CC(C(=O)O)N(C(=O)C(c2ccccc2)c2ccccc2)C3)cc1C` (stereo not drawn) [EMA300, 1-(3-methyl-4-methoxyphenyl)-methyl-5-diphenylacetyl-4,5,6,7-tetrahydro-1H-imidazo[4,5-c]pyridine-6-carboxylic acid]: the antihyperalgesic effect entry was “+6%” with monoarthritic rats (0.1 mg/kg i.p., 15 and 30 minutes after drug injection); “+22%” with monoarthritic rats (1 mg/kg i.p., 15 and 30 minutes after drug injection); “+56%” in the series with monoarthritic rats (10 mg/kg i.p., 15 and 30 minutes after drug injection). Further, the “antihyperalgesic effect in model of monoarthritis (overall)” value in the series on monoarthritic rats is on record as “dose-dependent antihyperalgesic effect; also recorded: induce antihyperalgesic effects”.

As to `Cc1cc(Cn2cnc3c2CC(C(=O)O)N(C(=O)C(c2ccccc2)c2ccccc2)C3)ccc1N(C)C` (stereo not drawn) [PD-123,319, 1-(4-Dimethylamino-3-methylphenyl)methyl-5-diphenylacetyl-4,5,6,7-tetrahydro-1H-imidazo[4,5-c]-pyridine-6-carboxylic acid], in series [2], the “relief of mechanical hyperalgesia in the ipsilateral (inflamed) hindpaw” value is listed as “dose-dependent relief of mechanical hyperalgesia”.

Regarding `CN1CC[C@]23c4c5ccc(O)c4O[C@H]2[C@@H](O)C=C[C@H]3[C@H]1C5` [morphine], the “effect on ipsilateral hindpaw volume” value in series [3] was “did not alter ipsilateral hindpaw volumes; also recorded: unaffected”. Also, the “duration of action (anti-hyperalgesic response)” value in series [4] (0.5 mg/kg s.c. single bolus) is 2 to 3 h. Further, the “time of peak anti-hyperalgesic response” value in series [4] (0.5 mg/kg s.c. single bolus, post-dosing) is on record as 0.5 h. The “reversal of FCA-induced mechanical hyperalgesia” value in series [4] (0.5 mg/kg s.c., 0.5 h post-dosing) is “fully reversed FCA-induced mechanical hyperalgesia”. The “mean (±SEM) PPT at the time of peak effect, ipsilateral hindpaw” value in series [4] (0.5 mg/kg s.c., 0.5 h post-dosing, pre-dosing 63.7 (±2.5) g) is 115.0 (±10.6) g. Besides, the “antinociceptive effect in the contralateral hindpaw” value in series [5] was “small antinociceptive effect”. In the series with FCA-rats, the adverse behavioural effects entry is listed as “did not produce adverse behavioural effects”. For the same compound, the “antinociceptive effect (vocalization threshold)” value in the series on monoarthritic rats (morphine 5 mg/kg i.p., compared to pre-induction values) is reported as “significant increase in the vocalization threshold”.
